How the values were obtained:
[1] = test system: SMURF2 WW domain #3 (SMURF2-3); type: binding
[2] = test system: ~115 known WW domains (GST-fusion proteins); type: binding, mammalian
GST-SMURF2-WW3 = GST-SMURF2-WW3 (Homo sapiens, UniProt Q9HAU4); type: binding; conditions: pH 7.4
Sequence of GST-SMURF2-WW3 (Q9HAU4 297-330): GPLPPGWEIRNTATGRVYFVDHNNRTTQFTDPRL

In the case of CC[C@H](C)[C@H](NC(=O)[C@H](C)NC(=O)[C@H](CCC(=O)O)NC(=O)[C@H](CCSC)NC(=O)[C@H](Cc1ccc(O)cc1)NC(=O)[C@H](CCC(=O)O)NC(=O)[C@@H]1CCCN1C(=O)[C@@H]1CCCN1C(=O)[C@H](C)NC(=O)[C@@H](NC(=O)[C@@H]1CCCN1C(=O)[C@H](CC(C)C)NC(=O)[C@@H](NC(=O)[C@@H](NC(=O)[C@H](CCCNC(=N)N)NC(=O)[C@H](CCCNC(=N)N)NC(=O)[C@@H](N)CCSC)C(C)C)[C@@H](C)CC)[C@@H](C)O)C(=O)N[C@@H](CCCCNC(=O)CCCC[C@@H]1SC[C@@H]2NC(=O)N[C@@H]21)C(=O)O [eVP40-WT peptide], the “interaction with SMURF2 WW domain #3 on array” value [1] is reported as “positive interaction”, the “interaction with host WW domains on array” value [2] is reported as “interacted with a select number of host WW domains” and the Bmax (GST-SMURF2-WW3) is reported as 39 RU.
